These results are taken from patent US20240117303A1, “METHODS AND COMPOSITIONS FOR GENERATING HUMAN MIDBRAIN DOPAMINERGIC NEURONS FROM NEURAL PROGENITOR CELLS” (Trailhead Biosystems Inc., priority 2022, published 2024).

Assay [1] concerns stage 3 immature neurons. Put plainly: HD-DoE 8-factor experiment for stage 4 recipe (FIG. 27, 28, 31). The assay is classed as cell-based, human. On the procedure: To further differentiate the cells to a mature neuronal identity, additional HD-DoE experiments were performed on the cells that were cultured in stage 1, stage 2 and stage 3 differentiation media. After 4 days, gene expression of cells in different combinatorial conditions were investigated. At this time, we focused on maximal expression of more mature dopaminergic genes such as NR4A2, PITX3 and TH (Tiklová et al. (2020) Nat Commun. 11:2434; Fiorenzano et al. (2021) Nat Commun., 12:7302). In one model, cells were treated with a combinatorial matrix with eight inputs including CHIR99021, BDNF, GDNF, Rosiglitazone, GW7647, DBZ and heparin.
To assess the impact of elimination of each validated factor identified in Example 5 for the stage 3 and stage 4 recipes, we used dynamic profile analysis and compared the expression level of genes of interest in absence of each finalized factor while others are present.
In the stage 4 recipe, each of six finalized factors were excluded while other factors were present and the expression levels of NR4A2 and PITX3 were assessed compared to the presence of all factors.

Assay [2] concerns human pluripotent stem cells. Kind of assay: HD-DoE 13-factor experiment for stage 1 recipe, gene expression modeled after 3-day treatment; dynamic profile and factor criticality analysis. The assay is classed as cell-based. Summed up:
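Human pluripotent stem cells given 13-factor effector combinations (e.g. LDN193189, CHIR99021, PD0325901) for 3 days; expression of 53 preselected genes modeled, focusing on OTX2, DMBX1, FOXA2, LMX1A and GBX2. Factor criticality assessed by removing each of five finalized factors and comparing with all five present.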

Assay [3] concerns stage 2 neural progenitors. Put plainly: HD-DoE 12-factor model for stage 3 recipe (FIG. 19-23, 29). The assay is classed as cell-based, human.

Take `Cc1c[nH]c(-c2cnc(NCCNc3ccc(C#N)cn3)nc2-c2ccc(Cl)cc2Cl)n1` [CHIR99021]: the “impact on expression level of PITX3” value in assay [1] (dynamic profile, 8 effectors) is on record as “did not have a meaningful effect”. Further, the factor contribution in assay [1] (model maximized for NR4A2, negative impact) turned out to be 20.7; in assay [2] (model optimized for maximum expression of FOXA2, positive effect), 15.6; in assay [2] (model optimized for maximum expression of OTX2, positive impact, 3-day treatment), 13.5; in assay [3] (model maximizing expression of CORIN, negative impact), 10.9; in assay [3] (model optimized for maximum expression of KCNJ6, positive regulators) it was 10.7. In assay [2] (dynamic profile, 13 effectors), the “impact on expression of FOXA2” value is on record as “positive impact”. In addition, the “impact on expression of OTX2” value in assay [2] (dynamic profile, 13 effectors) is given as “positive impact”. Further, the “expression level of LMX1A in absence of the factor” value in assay [2] (stage 1 recipe, other four factors present, 300 with all five factors) is listed as “reduced”. For the same molecule, the “expression level of FOXA2 in absence of the factor” value in assay [2] (stage 1 recipe, other four factors present, 600 with all five factors) was “reduced”. Besides, the “expression level of DMBX1 in absence of the factor” value in assay [2] (stage 1 recipe, other four factors present, 3000 with all five factors) is listed as “reduced”. The “expression level of OTX2 in absence of the factor” value in assay [2] (stage 1 recipe, other four factors present, 12000 with all five factors) is “reduced”. Also, the “impact on expression of KCNJ6” value in assay [3] (dynamic profile, 12 effectors) is given as “positive impact”. The “expression level of KCNJ6 in absence of the factor” value in assay [3] (stage 3 recipe, other factors present, 50 with all factors) stood at 50. In assay [3] (stage 3 recipe, other factors present, 105 with all factors), the “expression level of SOX6 in absence of the factor” value was 125. In assay [3] (stage 3 recipe, other factors present, 140 with all factors), the “expression level of MSX1 in absence of the factor” value is reported as 115. For the same molecule, in assay [3] (stage 3 recipe, other factors present, 900 with all factors), the “expression level of CORIN in absence of the factor” value came to 1200.
